The text below walks through data of patent US11186589B2, “Cyanoindoline derivatives as NIK inhibitors” (Janssen Pharmaceutica NV, priority 2016, dated 2021).

The target in one assay is NIK/MAP3K14 (Homo sapiens (Human), UniProt Q99558). Nature of the assay: Inhibition of auto-phosphorylation of recombinant human NF-kappaB-inducing kinase (NIK/MAP3K14) activity (AlphaScreen). The note with it: averaged values over all measurements on all batches, 25 microM ATP. The assay is classed as biochemical. The procedure:
Inhibition of Auto-Phosphorylation of Recombinant Human NF-kappaB-Inducing Kinase ([…]) Activity (AlphaScreen®)
NIK/MAP3K14 auto-phosphorylation activity was measured using the AlphaScreen® (αscreen) format (Perkin Elmer). All compounds tested were dissolved in dimethyl sulfoxide (DMSO) and further dilutions were made in assay buffer. Final DMSO concentration was […] in assays. Assay buffer was 50 mM Tris pH 7.5 containing 1 mM EGTA (ethylene glycol tetraacetic acid), 1 mM DTT (dithiothreitol), 0.1 mM Na3VO4, 5 mM MgCl2, 0.01% Tween® 20. Assays were carried out in 384 well Alphaplates (Perkin Elmer). Incubations consisted of compound, 25 microM Adenosine-5′-triphosphate (ATP), and 0.2 nM NIK/MAP3K14. Incubations were initiated by addition of GST-tagged NIK/MAP3K14 enzyme, carried out for 1 h at 25° C. and terminated by addition of stop buffer containing anti-phospho-[…] Ser176/180 antibody. Protein A Acceptor and Glutathione-Donor beads were added before reading using an EnVision® Multilabel Plate Reader (Perkin Elmer). Signal obtained in the wells containing blank samples was subtracted from all other wells and IC50's were determined by fitting a sigmoidal curve to % inhibition of control versus Log10 compound concentration.

The next assay concerns JJN-3 cells. Nature of the assay: Antiproliferative activity on JJN-3 (NIK translocated) multiple myeloma cells (CellTiter-Glo). The following applies: JJN-3 (NIK translocated) cells, 96 hr treatment, averaged values, read-out: JJN-3 Proliferation inhibition (IC50 (nM)). The assay is classed as cell-based, human. The procedure:
(§1) Determination of Antiproliferative Activity on JJN-3 (NIK Translocated) and KMS12-BM (NIK WT) Multiple Myeloma Cells
(§2) All compounds tested were dissolved in DMSO and further dilutions were made in culture medium. Final DMSO concentration was 0.3% (v/v) in cell proliferation assays. Viability was assessed using CellTiter-Glo cell viability assay kit (Promega). The human JJN-3 and KMS12-BM cells (DSMZ) were cultured in RPMI 1640 medium supplemented with 2 mM L-glutamine, and 10% fetal calf serum (PAA). Cells were routinely kept as suspension cells at 37° C. in a humidified 5% CO2 atmosphere. Cells were passaged at a seeding density of 0.2×10^6/ml twice a week. Cells were seeded in black tissue culture treated 96-well plates (Perkin Elmer). Densities used for plating ranged from 15000 (JJN3) to 20000 (KMS12BM) cells per well in a total volume of […]. Drugs and/or solvents were added (15 μl) to a final volume of 150 μl. Following 96 hr of treatment, plates were removed from the incubator and allowed to equilibrate to room temperature for approx 10 min. 75 μl CellTiter-Glo reagent was added to each well that was then covered (Perkin Elmer Topseal) and shaken on plate shaker for 10 min. Luminescence was measured on a HTS Topcount (Perkin Elmer). Within an experiment, the results for each treatment were the mean of 2 replicate wells. For initial screening purposes, compounds were tested using a 9 point dilution curve (serial 1:3 dilutions). For each experiment, controls (containing no drug) and a blank incubation (containing cells read at the time of compound addition) were run in parallel. The blank value was subtracted from all control and sample values. For each sample, the mean value for cell growth (in relative light units) was expressed as a percentage of the mean value for cell growth of the control.

A further assay deals with KMS12-BM cells. Nature of the assay: Antiproliferative activity on KMS12-BM (NIK WT) multiple myeloma cells (CellTiter-Glo). The assay is classed as cell-based, human. The note with it: 96 hr treatment, averaged values, read-out: KMS-12 Proliferation inhibition (IC50 (nM)). How it is done:
as §1, §2

Read-outs that look alike come from different tables or passages of the source.

NIK/MAP3K14, sequence (Q99558 whole entry): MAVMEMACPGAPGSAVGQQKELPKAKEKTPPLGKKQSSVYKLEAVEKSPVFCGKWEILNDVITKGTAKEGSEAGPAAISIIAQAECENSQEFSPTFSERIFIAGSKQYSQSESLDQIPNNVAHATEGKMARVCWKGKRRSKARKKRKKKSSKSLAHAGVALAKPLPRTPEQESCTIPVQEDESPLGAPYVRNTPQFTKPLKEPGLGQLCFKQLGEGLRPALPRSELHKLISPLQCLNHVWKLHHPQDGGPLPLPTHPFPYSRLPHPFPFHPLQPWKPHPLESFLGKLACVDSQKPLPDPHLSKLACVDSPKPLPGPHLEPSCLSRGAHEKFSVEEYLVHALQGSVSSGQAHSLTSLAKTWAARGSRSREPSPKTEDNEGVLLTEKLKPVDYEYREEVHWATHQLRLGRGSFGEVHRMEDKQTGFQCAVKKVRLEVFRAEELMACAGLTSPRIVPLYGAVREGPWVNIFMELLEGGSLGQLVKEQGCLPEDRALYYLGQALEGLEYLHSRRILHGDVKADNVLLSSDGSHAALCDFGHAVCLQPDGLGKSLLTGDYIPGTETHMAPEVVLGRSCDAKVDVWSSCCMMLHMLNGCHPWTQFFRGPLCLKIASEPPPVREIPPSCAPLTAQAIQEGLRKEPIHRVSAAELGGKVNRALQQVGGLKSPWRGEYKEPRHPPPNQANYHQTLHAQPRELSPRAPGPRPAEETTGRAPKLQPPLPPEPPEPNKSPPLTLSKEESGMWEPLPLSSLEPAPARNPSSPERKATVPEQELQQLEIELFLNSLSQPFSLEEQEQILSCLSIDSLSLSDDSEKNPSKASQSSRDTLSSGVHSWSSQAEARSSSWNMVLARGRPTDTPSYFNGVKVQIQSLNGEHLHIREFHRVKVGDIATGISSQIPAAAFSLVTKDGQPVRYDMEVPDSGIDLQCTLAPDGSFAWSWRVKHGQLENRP

Turning to `CC1(CO)CNc2c(C#N)cc(-c3ccnc(Nc4ccc5c(c4)CC(CO)OC5)n3)cc21` (single isomer, unassigned) [Compound 5], the IC50 at NIK/MAP3K14 is 1.9 nM; in the assay on JJN-3 cells (Homo sapiens, JJN-3, 96 h), 21 nM; in the assay with KMS12-BM cells (Homo sapiens, KMS-12-BM, 96 h) it was 151 nM.
As to `CC1(CO)CNc2c(C#N)cc(-c3ccnc(Nc4ccc5c(c4)CC(CO)OC5)n3)cc21` (single isomer, unassigned) [Compound 8], the IC50 on NIK/MAP3K14 was found to be 2 nM; in the assay with JJN-3 cells, 41 nM; in the assay on KMS12-BM cells, 162 nM.
On to `CC1(CO)CNc2c(C#N)cc(-c3ccnc(Nc4ccc5c(c4)CCCO5)n3)cc21` (stereo not shown) [Compound 1], for which the IC50 at NIK/MAP3K14 amounted to 5.9 nM; in the assay with JJN-3 cells (Homo sapiens, JJN-3, 96 h), 96 nM; with KMS12-BM cells (Homo sapiens, KMS-12-BM, 96 h) it was 550 nM.
In the same order, the values of `CC1(C)CNc2c(C#N)cc(-c3ccnc(Nc4cccc5c4CNC5)n3)cc21` [Compound 2] are 4.3 nM, 112 nM and roughly 177 nM.
In the same order, the values of `CN1CCc2ccc(Nc3nccc(-c4cc(C#N)c5c(c4)C(C)(CO)CN5)n3)cc2CC1` (stereo not shown) [Compound 3] are 1.4 nM, roughly 24 nM and 85 nM.
In the same order, the values of `CC1(CO)CNc2c(C#N)cc(-c3ccnc(Nc4cc(Cl)cc5c4OCCC5)n3)cc21` (stereo not shown) [Compound 4] are 26.9 nM, 107 nM and greater than 10000 nM.
In the case of `Cn1nc2c(c1Nc1nccc(-c3cc(C#N)c4c(c3)C(C)(CO)CN4)n1)CCC2` (stereo not shown) [Compound 4b], the IC50 is 8.5 nM at NIK/MAP3K14; 1900 nM with JJN-3 cells (Homo sapiens, JJN-3, 96 h); roughly 6460 nM with KMS12-BM cells (Homo sapiens, KMS-12-BM, 96 h).
The corresponding values for `CC1(CO)CNc2c(C#N)cc(-c3ccnc(Nc4cc(Cl)cc5c4ccn5CCN4CCOCC4)n3)cc21` (stereo not shown) [Compound 4c] are 9.6 nM, 9 nM and roughly 1020 nM.
The corresponding values for `Cn1nc(Nc2nccc(-c3cc(C#N)c4c(c3)C(C)(CO)CN4)n2)c2c1CCC2` (stereo not shown) [Compound 5b] are 20.4 nM, 468 nM and greater than 10000 nM.
For the compound `CC1(CO)CNc2c(C#N)cc(-c3ccnc(Nc4cc(Cl)cc5c4ccn5CCCN4CCOCC4)n3)cc21` (stereo not shown) [Compound 5c], the IC50 on NIK/MAP3K14 was 12 nM; in the assay on JJN-3 cells (Homo sapiens, JJN-3, 96 h), 23 nM; in the assay with KMS12-BM cells (Homo sapiens, KMS-12-BM, 96 h) it was roughly 692 nM.
In the same order, the values of `CC1(C)CNc2c(C#N)cc(-c3ccnc(Nc4cccc5c4CNCC5)n3)cc21` [Compound 6] are 12.6 nM, 263 nM and 794 nM.
The corresponding values for `CC1OCCn2nc(Nc3nccc(-c4cc(C#N)c5c(c4)C(C)(CO)CN5)n3)cc21` (stereo not shown) [Compound 6b] are 5.9 nM, 398 nM and roughly 851 nM.
The corresponding values for `COCCCn1ccc2c(Nc3nccc(-c4cc(C#N)c5c(c4)C(C)(CO)CN5)n3)cc(Cl)cc21` (stereo not shown) [Compound 6c] are 34.8 nM, 10 nM and 1620 nM.
As to `CC1(CO)CNc2c(C#N)cc(-c3ccnc(Nc4ccc5c(c4)C(F)(F)CCO5)n3)cc21` (stereo not shown) [Compound 7], the IC50 at NIK/MAP3K14 was 5.9 nM; with JJN-3 cells (Homo sapiens, JJN-3, 96 h), 48 nM; in the assay with KMS12-BM cells (Homo sapiens, KMS-12-BM, 96 h), 525 nM.
With `CC1(CO)CNc2c(C#N)cc(-c3ccnc(Nc4cc5n(n4)CCOC5)n3)cc21` (stereo not shown) [Compound 7b], the IC50 is 11.8 nM at NIK/MAP3K14; 1700 nM in the assay on JJN-3 cells (Homo sapiens, JJN-3, 96 h); 6310 nM in the assay on KMS12-BM cells (Homo sapiens, KMS-12-BM, 96 h).
In the same order, the values of `CN1Cc2cc(Nc3nccc(-c4cc(C#N)c5c(c4)C(C)(CO)CN5)n3)nn2CC1=O` (stereo not shown) [Compound 8b] are 4 nM, 1150 nM and 6170 nM.
In the same order, the values of `CC1(C)CNc2c(C#N)cc(-c3ccnc(Nc4cc(F)cc5[nH]ccc45)n3)cc21` [Compound 8c] are 38 nM, 85 nM and greater than 10000 nM.
The corresponding values for `CC(=O)N1CCc2c(C)c(Nc3nccc(-c4cc(C#N)c5c(c4)C(C)(CO)CN5)n3)cc(Cl)c21` (stereo not shown) [Compound 9] are 2 nM, 25 nM and roughly 2750 nM.
On to `CN1CCn2nc(Nc3nccc(-c4cc(C#N)c5c(c4)C(C)(CO)CN5)n3)cc2C1` (stereo not shown) [Compound 9b], for which the IC50 is 6.8 nM on NIK/MAP3K14; 204 nM in the assay with JJN-3 cells (Homo sapiens, JJN-3, 96 h); 1660 nM with KMS12-BM cells (Homo sapiens, KMS-12-BM, 96 h).
The corresponding values for `Cc1c(Nc2nccc(-c3cc(C#N)c4c(c3)C(C)(CO)CN4)n2)cc(Cl)c2[nH]ccc12` (stereo not shown) [Compound 9c] are 10.5 nM, 1180 nM and 5620 nM.
In the same order, the values of `CC1(CO)CNc2c(C#N)cc(-c3ccnc(Nc4cc(Cl)cc5c4CCN5)n3)cc21` (stereo not shown) [Compound 10] are 4.9 nM, 42 nM and roughly 5750 nM.
In the same order, the values of `CC1(C)Cn2nc(Nc3nccc(-c4cc(C#N)c5c(c4)C(C)(CO)CN5)n3)cc2CO1` (stereo not shown) [Compound 10b] are 9.6 nM, 1020 nM and 2400 nM.
As to `COc1nc2c(ccn2CC(=O)N(C)C)cc1Nc1nccc(-c2cc(C#N)c3c(c2)[C@@](C)(CO)CN3)n1` [Compound 10c], the IC50 is 4.3 nM at NIK/MAP3K14; 63 nM in the assay with JJN-3 cells (Homo sapiens, JJN-3, 96 h); greater than 10000 nM with KMS12-BM cells (Homo sapiens, KMS-12-BM, 96 h).
Consider `CN(C)C(=O)C1COc2c(cc(Cl)cc2Nc2nccc(-c3cc(C#N)c4c(c3)[C@@](C)(CO)CN4)n2)C1` (stereo partly shown) [Compound 11], for which the IC50 on NIK/MAP3K14 is 9.1 nM; in the assay with JJN-3 cells (Homo sapiens, JJN-3, 96 h), 36 nM; with KMS12-BM cells, 1180 nM.
Consider `COCCn1nc2c(c1Nc1nccc(-c3cc(C#N)c4c(c3)[C@@](C)(CO)CN4)n1)CCC2` [Compound 11b], for which the IC50 was 39.8 nM on NIK/MAP3K14; 1580 nM in the assay on JJN-3 cells (Homo sapiens, JJN-3, 96 h); roughly 1820 nM in the assay with KMS12-BM cells (Homo sapiens, KMS-12-BM, 96 h).
In the same order, the values of `CNC(=O)CCn1ccc2c(Nc3nccc(-c4cc(C#N)c5c(c4)C(C)(CO)CN5)n3)cc(Cl)cc21` (stereo not shown) [Compound 11c] are 4.3 nM, 16 nM and 427 nM.
For the compound `CN(C)C(=O)C1COc2c(cc(Cl)cc2Nc2nccc(-c3cc(C#N)c4c(c3)[C@@](C)(CO)CN4)n2)C1` (stereo partly shown) [Compound 12], the IC50 on NIK/MAP3K14 was 14.1 nM; in the assay on JJN-3 cells, 22 nM; in the assay on KMS12-BM cells it was roughly 6610 nM.
With `CN(C)CC(=O)N1CCc2c(Nc3nccc(-c4cc(C#N)c5c(c4)[C@@](C)(CO)CN5)n3)cc(Cl)cc21` [Compound 13], the IC50 at NIK/MAP3K14 is 1.3 nM; with JJN-3 cells (Homo sapiens, JJN-3, 96 h), 18 nM; with KMS12-BM cells (Homo sapiens, KMS-12-BM, 96 h), roughly 3550 nM.
For the compound `CNC(=O)CN1CCc2c(Nc3nccc(-c4cc(C#N)c5c(c4)C(C)(CO)CN5)n3)cc(Cl)cc21` (stereo not shown) [Compound 14], the IC50 on NIK/MAP3K14 came out at 3 nM; in the assay on JJN-3 cells (Homo sapiens, JJN-3, 96 h), 54 nM; with KMS12-BM cells (Homo sapiens, KMS-12-BM, 96 h) it was 251 nM.
The corresponding values for `COCCn1ccc2cc(Nc3nccc(-c4cc(C#N)c5c(c4)[C@@](C)(CO)CN5)n3)c(OC)nc21` [Compound 14c] are 5.6 nM, 63 nM and greater than 10000 nM.
The corresponding values for `Cc1c(Nc2nccc(-c3cc(C#N)c4c(c3)[C@@](C)(CO)CN4)n2)ccc2c1CCN2C(=O)CN(C)C` [Compound 15] are 2.5 nM, 89 nM and 96 nM.
Regarding `Cc1c(Nc2nccc(-c3cc(C#N)c4c(c3)[C@@](C)(CO)CN4)n2)cc(Cl)c2c1CCN2C(=O)CN(C)C` [Compound 16], the IC50 was 1.6 nM at NIK/MAP3K14; 26 nM in the assay on JJN-3 cells (Homo sapiens, JJN-3, 96 h); roughly 339 nM with KMS12-BM cells (Homo sapiens, KMS-12-BM, 96 h).
Take `CC(C)c1c(Nc2nccc(-c3cc(C#N)c4c(c3)[C@@](C)(CO)CN4)n2)nn2c1CN(C)CC2` [Compound 16b]: at NIK/MAP3K14, the IC50 was determined as 363 nM.
